Source: US20260262643A1, “HERBICIDAL BENZOXAZINES” (FMC CORPORATION, priority 2022, published 2026)

Assays:
goosegrass [1] = assay: Test A preemergence; type: in vivo, Eleusine indica; conditions: 1000 g ai/ha, 0 to 100 scale (0 no effect, 100 complete control), 10 days
Description: (§1) Seeds of plant species selected from barnyardgrass (Echinochloa crusgalli), blackgrass (Alopecurus myosuroides), corn (Zea mays), foxtail, giant (giant foxtail, Setaria faberi), goosegrass (Eleusine indica), kochia (Bassia scoparia), oat, wild (wild oat, Avena fatua), pigweed, palmer (palmer amaranth, palmer pigweed, Amaranthus palmeri), Pigweed, Redroot (redroot pigweed, Amaranthus retroflexus), ragweed (common ragweed, Ambrosia artemisiifolia), ryegrass, Italian (italian ryegrass, Lolium multiflorum), soybean (Glycine max), and wheat (Triticum aestivum) were planted into a blend of loam soil and sand and treated preemergence with a directed soil spray using test chemicals formulated in a non-phytotoxic solvent mixture which included a surfactant. At the same time, plants selected from these crops and weed species and also galium (catchweed bedstraw, Galium aparine) and horseweed (Erigeron canadensis) were planted in pots containing the same blend of loam soil and sand and treated with postemergence applications of test chemicals formulated in the same manner. Plants ranged in height from 2 to 10 cm and were in the one- to two-leaf stage for the postemergence treatment. Treated plants and untreated controls were maintained in a greenhouse for 10 days, after which time all treated plants were compared to untreated controls and visually evaluated for injury. Plant response ratings, summarized in Table A, are based on a 0 to 100 scale where 0 is no effect and 100 is complete control. A dash (-) response means no test result.

ryegrass, Italian [2] = assay: Test A preemergence; type: in vivo, Lolium multiflorum; conditions: 1000 g ai/ha, 0 to 100 scale (0 no effect, 100 complete control), 10 days
Description: as §1

ragweed [3] = assay: Test A postemergence; type: in vivo, Ambrosia artemisiifolia; conditions: 1000 g ai/ha, Postemergence; 0 to 100 scale
Description: as §1

horseweed [4] = assay: Test A postemergence; type: in vivo, Erigeron canadensis; conditions: 1000 g ai/ha, Postemergence; 0 to 100 scale
Description: as §1

pigweed, palmer [5] = assay: Test A preemergence; type: in vivo, Amaranthus palmeri; conditions: 1000 g ai/ha, 0 to 100 scale (0 no effect, 100 complete control), 10 days
Description: as §1

galium [6] = assay: Test A postemergence; type: in vivo, Galium aparine; conditions: 1000 g ai/ha, Postemergence; 0 to 100 scale
Description: as §1

blackgrass [7] = assay: Test A postemergence; type: in vivo, Alopecurus myosuroides; conditions: 1000 g ai/ha, Postemergence; 0 to 100 scale
Description: as §1

pigweed, palmer [8] = assay: Test A postemergence; type: in vivo, Amaranthus palmeri; conditions: 1000 g ai/ha, Postemergence; 0 to 100 scale
Description: as §1

goosegrass [9] = assay: Test A postemergence; type: in vivo, Eleusine indica; conditions: 1000 g ai/ha, Postemergence; 0 to 100 scale
Description: as §1

kochia [10] = assay: Test A preemergence; type: in vivo, Bassia scoparia; conditions: 1000 g ai/ha, 0 to 100 scale (0 no effect, 100 complete control), 10 days
Description: as §1

blackgrass [11] = assay: Test A preemergence; type: in vivo, Alopecurus myosuroides; conditions: 1000 g ai/ha, 0 to 100 scale (0 no effect, 100 complete control), 10 days
Description: as §1

foxtail, giant [12] = assay: Test A preemergence; type: in vivo, Setaria faberi; conditions: 1000 g ai/ha, 0 to 100 scale (0 no effect, 100 complete control), 10 days
Description: as §1

kochia [13] = assay: Test A postemergence; type: in vivo, Bassia scoparia; conditions: 1000 g ai/ha, Postemergence; 0 to 100 scale
Description: as §1

foxtail, giant [14] = assay: Test A postemergence; type: in vivo, Setaria faberi; conditions: 1000 g ai/ha, Postemergence; 0 to 100 scale
Description: as §1

ryegrass, Italian [15] = assay: Test A postemergence; type: in vivo, Lolium multiflorum; conditions: 1000 g ai/ha, Postemergence; 0 to 100 scale
Description: as §1

ryegrass, Italian [16] = assay: Test C postemergence; type: in vivo, Lolium multiflorum; conditions: 10 days
In short: (§2)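 Soil-applied (pre) and foliar (post, 1–2 leaf, 2–10 cm) sprays; surfactant-containing non-phytotoxic solvent vehicle; loam/sand substrate. Readout: visual % control at 10 d, greenhouse, versus untreated.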

blackgrass [17] = assay: Test C preemergence; type: in vivo, Alopecurus myosuroides; conditions: 0 to 100 scale (0 no effect, 100 complete control)
In short: as §2

blackgrass [18] = assay: Test C postemergence; type: in vivo, Alopecurus myosuroides; conditions: 10 days
In short: as §2

oat, wild [19] = assay: Test C preemergence; type: in vivo, Avena fatua; conditions: 0 to 100 scale (0 no effect, 100 complete control)
In short: as §2

ducksalad = assay: Test D flooded paddy test; type: in vivo, Heteranthera limosa; conditions: 250 g ai/ha, applied to paddy water, visual rating after 13 to 14 days, scale 0 to 100 (0 no effect, 100 complete control)
In short: (§3)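 Rating scale 0–100 (0 no effect, 100 complete control), visual, versus controls. Readout at 13–14 days after in-water application to 2-leaf plants in pots flooded 3 cm deep.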

oat, wild [20] = assay: Test C postemergence; type: in vivo, Avena fatua; conditions: 10 days
In short: as §2

corn [21] = assay: Test C postemergence; type: in vivo, Zea mays; conditions: 10 days
In short: as §2

kochia [22] = assay: Test C preemergence; type: in vivo, Bassia scoparia; conditions: 0 to 100 scale (0 no effect, 100 complete control)
In short: as §2

green foxtail [23] = assay: Test C postemergence; type: in vivo, Setaria viridis; conditions: 10 days
In short: as §2

barnyardgrass [24] = assay: Test C preemergence; type: in vivo, Echinochloa crusgalli; conditions: 0 to 100 scale (0 no effect, 100 complete control)
In short: as §2

soybean [25] = assay: Test C preemergence; type: in vivo, Glycine max; conditions: 0 to 100 scale (0 no effect, 100 complete control)
In short: as §2

sedge, umbrella = assay: Test D flooded paddy test; type: in vivo, Cyperus difformis; conditions: 250 g ai/ha, applied to paddy water, visual rating after 13 to 14 days, scale 0 to 100 (0 no effect, 100 complete control)
In short: as §3

soybean [26] = assay: Test C postemergence; type: in vivo, Glycine max; conditions: 10 days
In short: as §2

ryegrass, Italian [27] = assay: Test C preemergence; type: in vivo, Lolium multiflorum; conditions: 0 to 100 scale (0 no effect, 100 complete control)
In short: as §2

barnyardgrass [28] = assay: Test C postemergence; type: in vivo, Echinochloa crusgalli; conditions: 10 days
In short: as §2

corn [29] = assay: Test C preemergence; type: in vivo, Zea mays; conditions: 0 to 100 scale (0 no effect, 100 complete control)
In short: as §2

green foxtail [30] = assay: Test C preemergence; type: in vivo, Setaria viridis; conditions: 0 to 100 scale (0 no effect, 100 complete control)
In short: as §2

galium [31] = assay: Test C postemergence; type: in vivo, Galium aparine; conditions: 10 days
In short: as §2

ragweed [32] = assay: Test C postemergence; type: in vivo, Ambrosia artemisiifolia; conditions: 10 days
In short: as §2

wheat [33] = assay: Test C preemergence; type: in vivo, Triticum aestivum; conditions: 0 to 100 scale (0 no effect, 100 complete control)
In short: as §2

rice = assay: Test D flooded paddy test; type: in vivo, Oryza sativa; conditions: 250 g ai/ha, applied to paddy water, visual rating after 13 to 14 days, scale 0 to 100 (0 no effect, 100 complete control)
In short: as §3

ragweed [34] = assay: Test C preemergence; type: in vivo, Ambrosia artemisiifolia; conditions: 0 to 100 scale (0 no effect, 100 complete control)
In short: as §2

wheat [35] = assay: Test C postemergence; type: in vivo, Triticum aestivum; conditions: 10 days
In short: as §2

pigweed, palmer [36] = assay: Test C postemergence; type: in vivo, Amaranthus palmeri; conditions: 10 days
In short: as §2

horseweed [37] = assay: Test C postemergence; type: in vivo, Erigeron canadensis; conditions: 10 days
In short: as §2

barnyardgrass [38] = assay: Test D flooded paddy test; type: in vivo, Echinochloa crus-galli; conditions: 250 g ai/ha, applied to paddy water, visual rating after 13 to 14 days, scale 0 to 100 (0 no effect, 100 complete control)
In short: as §3

pigweed, palmer [39] = assay: Test C preemergence; type: in vivo, Amaranthus palmeri; conditions: 0 to 100 scale (0 no effect, 100 complete control)
In short: as §2

kochia [40] = assay: Test C postemergence; type: in vivo, Bassia scoparia; conditions: 10 days
In short: as §2

[41] = 125 g ai/ha, postemergence, 0 to 100 scale, 0 no effect, 100 complete control
[42] = Postemergence, 500 g ai/ha, visual 0 to 100 scale (0 no effect, 100 complete control)
[43] = Preemergence, 500 g ai/ha, visual rating after 10 days
[44] = Test C, preemergence, 125 g ai/ha

## Cc1nc(-c2cccc(C(=O)N3C[C@H](C)Oc4c(Cl)cccc43)c2)cs1 [Compound 125]
Goosegrass [1]
  Plant response rating, Goosegrass: 20
ryegrass, Italian [2]
  Plant response rating, Ryegrass, Italian: 60
Ragweed [3]
  Plant response rating, Ragweed: 0
Horseweed [4]
  Plant response rating, Horseweed: 0
pigweed, palmer [5]
  Plant response rating, Pigweed, Palmer: 30
Galium [6]
  Plant response rating, Galium: 40
Blackgrass [7]
  Plant response rating, Blackgrass: 20
pigweed, palmer [8]
  Plant response rating, Pigweed, Palmer: 40
Goosegrass [9]
  Plant response rating, Goosegrass: 0
Kochia [10]
  Plant response rating, Kochia: 0
Blackgrass [11]
  Plant response rating, Blackgrass: 0
foxtail, giant [12]
  Plant response rating, Foxtail, Giant: 20
Kochia [13]
  Plant response rating, Kochia: 50
foxtail, giant [14]
  Plant response rating, Foxtail, Giant: 20
ryegrass, Italian [15]
  Plant response rating, Ryegrass, Italian: 0

## CCc1ccc(-n2cnc(C(C)C)n2)cc1C(=O)N1C[C@H](C)Oc2c(C)cccc21 [Compound 240]
ryegrass, Italian [16]; [41]
  Plant response rating, Ryegrass, Italian: 70
ryegrass, Italian [16]; [42]
  Plant response rating, Ryegrass, Italian: 90
Blackgrass [17]; [43]
  Plant response rating, Blackgrass: 90
Blackgrass [17]; [44]
  Blackgrass plant response rating: 60
Blackgrass [18]; [41]
  Plant response rating, Blackgrass: 80
Blackgrass [18]; [42]
  Plant response rating, Blackgrass: 90
oat, wild [19]; [43]
  Plant response rating, Oat, Wild: 90
oat, wild [19]; [44]
  Oat, Wild plant response rating: 90
ducksalad
  Plant response rating, Ducksalad (Flood): 80
oat, wild [20]; [41]
  Plant response rating, Oat, Wild: 60
oat, wild [20]; [42]
  Plant response rating, Oat, Wild: 70
Corn [21]; [41]
  Plant response rating, Corn: 60
Corn [21]; [42]
  Plant response rating, Corn: 80
Kochia [22]; [43]
  Plant response rating, Kochia: 100
Kochia [22]; [44]
  Kochia plant response rating: 70
Green foxtail [23]; [41]
  Plant response rating, Foxtail, Green: 80
Green foxtail [23]; [42]
  Plant response rating, Foxtail, Green: 90
Barnyardgrass [24]; [43]
  Plant response rating, Barnyardgrass: 100
Barnyardgrass [24]; [44]
  Barnyardgrass plant response rating: 90
Soybean [25]; [43]
  Plant response rating, Soybean: 100
Soybean [25]; [44]
  Soybean plant response rating: 100
sedge, umbrella
  Plant response rating, Sedge, Umbrella (Flood): 100
Soybean [26]; [41]
  Plant response rating, Soybean: 100
Soybean [26]; [42]
  Plant response rating, Soybean: 100
ryegrass, Italian [27]; [43]
  Plant response rating, Ryegrass, Italian: 100
ryegrass, Italian [27]; [44]
  Ryegrass, Italian plant response rating: 100
Barnyardgrass [28]; [41]
  Plant response rating, Barnyardgrass: 40
Barnyardgrass [28]; [42]
  Plant response rating, Barnyardgrass: 80
Corn [29]; [43]
  Plant response rating, Corn: 60
Corn [29]; [44]
  Corn plant response rating: 70
Green foxtail [30]; [43]
  Plant response rating, Foxtail, Green: 100
Green foxtail [30]; [44]
  Foxtail, Green plant response rating: 100
Galium [31]; [41]
  Plant response rating, Galium: 100
Galium [31]; [42]
  Plant response rating, Galium: 100
Ragweed [32]; [41]
  Plant response rating, Ragweed: 50
Ragweed [32]; [42]
  Plant response rating, Ragweed: 80
Wheat [33]; [43]
  Plant response rating, Wheat: 90
Wheat [33]; [44]
  Wheat plant response rating: 60
rice
  Plant response rating, Rice (Flood): 10
Ragweed [34]; [43]
  Plant response rating, Ragweed: 20
Ragweed [34]; [44]
  Ragweed plant response rating: 10
Wheat [35]; [41]
  Plant response rating, Wheat: 20
Wheat [35]; [42]
  Plant response rating, Wheat: 50
pigweed, palmer [36]; [41]
  Plant response rating, Pigweed, Palmer: 90
pigweed, palmer [36]; [42]
  Plant response rating, Pigweed, Palmer: 100
Horseweed [37]; [41]
  Plant response rating, Horseweed: 0
Horseweed [37]; [42]
  Plant response rating, Horseweed: 70
Barnyardgrass [38]
  Plant response rating, Barnyardgrass (Flood): 35
pigweed, palmer [39]; [43]
  Plant response rating, Pigweed, Palmer: 100
pigweed, palmer [39]; [44]
  Pigweed, Palmer plant response rating: 100
Kochia [40]; [41]
  Plant response rating, Kochia: 30
Kochia [40]; [42]
  Plant response rating, Kochia: 90
